Data as given in ChEMBL document CHEMBL1152802, “Discovery of novel Trypanosoma cruzi glyceraldehyde-3-phosphate dehydrogenase inhibitors” (Bioorg Med Chem, 2009).

Legend:
[1] = target: Glyceraldehyde-3-phosphate dehydrogenase, glycosomal (Trypanosoma cruzi, UniProt P22513); test: (§1) Inhibition of Trypanosoma cruzi recombinant glycosomal GAPDH expressed in Escherichia coli by spectrophotometry
Trypanosoma cruzi [2] = test: Antitrypanosomal activity against Trypanosoma cruzi amastigote forms; assay type: functional, organism-based
Leishmania amazonensis = test: Antileishmanial activity against Leishmania amazonensis amastigote forms at 841 uM; assay type: functional
Ehrlich = test: Cytotoxicity against mouse Ehrlich carcinoma cells; assay type: functional, cell-based
Trypanosoma cruzi [3] = test: Antitrypanosomal activity against Trypanosoma cruzi amastigote forms at 841 uM; assay type: functional
[4] = target: Glyceraldehyde-3-phosphate dehydrogenase, glycosomal (Trypanosoma cruzi) (UniProt P22513); test: as §1; conditions: concentration not given here
Sequence of Glyceraldehyde-3-phosphate dehydrogenase, glycosomal (Trypanosoma cruzi) (P22513 whole entry): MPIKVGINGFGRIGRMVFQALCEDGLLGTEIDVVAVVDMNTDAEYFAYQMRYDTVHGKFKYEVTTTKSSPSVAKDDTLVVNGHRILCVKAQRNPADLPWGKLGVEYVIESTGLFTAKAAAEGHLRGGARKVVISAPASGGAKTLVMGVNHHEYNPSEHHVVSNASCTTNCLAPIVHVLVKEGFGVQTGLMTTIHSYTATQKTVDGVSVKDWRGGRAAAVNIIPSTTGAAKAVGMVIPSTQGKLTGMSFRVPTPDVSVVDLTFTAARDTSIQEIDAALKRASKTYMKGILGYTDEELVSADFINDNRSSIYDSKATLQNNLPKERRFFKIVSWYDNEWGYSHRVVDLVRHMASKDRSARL

Sequence of Glyceraldehyde-3-phosphate dehydrogenase, glycosomal (P22513 whole entry): as above

| Structure (SMILES) | IC50 [1] | also measured |
| --- | --- | --- |
| CCCCCC/C=C/CCCCCCCc1cccc(O)c1C(=O)O | 161 µM |  |
| COc1cccc(C(=O)N[C@@H]2[C@H](O)[C@@H](COP(=O)(O)O)O[C@H]2n2cnc3c(NCc4cccc5ccccc45)ncnc32)c1 | 5 µM |  |
| COc1cccc(C(=O)N[C@@H]2[C@H](O)[C@@H](CO)O[C@H]2n2cnc3c(NCc4cccc5ccccc45)ncnc32)c1 | 12 µM |  |
| C=CC/C=C/C/C=C/CCCCCCCc1cccc(O)c1C(=O)O | 38 µM |  |
| CCC/C=C/C/C=C/CCCCCCCc1cccc(O)c1C(=O)O | 69 µM |  |
| COc1cc2oc(-c3cc(OC)c(OC)c(OC)c3)cc(=O)c2cc1OC | 81 µM |  |
| C=CC(C)(C)c1cc2cc3c(cc2oc1=O)O[C@H](C(C)(C)O)C3 [CHALEPIN] | 64 µM |  |
| O=c1c2cc(O)c(O)cc2oc2cc(O)c([C@@H]3O[C@H](CO)[C@@H](O)[C@H](O)[C@H]3O)c(O)c12 [MANGIFERIN] | 149 µM |  |
| O=c1c(O)c(-c2ccc(O)c(O)c2)oc2cc(O)cc(O)c12 [QUERCETIN] | 142 µM | IC50 (Trypanosoma cruzi [2]): 771 µM |
| C[C@H]1[C@H](C)CC[C@]2(C(=O)O)CC[C@]3(C)C(=CC[C@@H]4[C@@]5(C)CC[C@H](O)C(C)(C)[C@@H]5CC[C@]43C)[C@H]12 [URSOLIC ACID] |  | inhibition [4]: 25%; IC50 (Trypanosoma cruzi [2]): 4 µM |

More lines, main results first:

| IC50 [1] | Structure (SMILES) | also measured |
| --- | --- | --- |
| 17.8 µM | CC(=O)Oc1ccc(-c2cc3cc(OC(C)=O)c(OC(C)=O)cc3oc2=O)cc1OC(C)=O |  |
| 84 µM | COc1ccc(-c2coc3cc(O)c(OC)cc3c2=O)cc1 [CASTANIN] |  |
| 692 µM | O=c1ccc2ccccc2o1 [COUMARIN] |  |
| 140 µM | O=c1c(O[C@@H]2OC[C@H](O)[C@H](O)[C@H]2O)c(-c2ccc(O)c(O)c2)oc2cc(O)cc(O)c12 [GUAJAVERIN] |  |
| 46 µM | O=C(/C=C/c1ccc(O)cc1)OC[C@H]1O[C@@H](Oc2c(-c3ccc(O)cc3)oc3cc(O)cc(O)c3c2=O)[C@H](O)[C@@H](O)[C@@H]1O [TILIROSIDE] | Activity (Leishmania amazonensis): 67.8%; IC50 (Ehrlich): 69.5 µM; Activity (Trypanosoma cruzi [3]): 45% |
| 617 µM | O=c1ccc2ccc(O)cc2o1 [UMBELLIFERONE] |  |
